The text below walks through data of patent US9890117B2, “Benzamide compounds and related methods of use” (Northwestern University, priority 2012, dated 2018).

For one series, the system named is N2a cells. Kind of series: Toxicity monitoring in N2a cells. In kind it is cell-based. Here is the method:
(§1) To assess SIRT2 inhibition activity in cells, an increase in α-tubulin K40 acetylation (α-tubulin is a substrate for SIRT2) in neuronal N2a and in wild type and HD ST141 cell lines was measured. In this bioactivity test, extracts from compound-treated cells were resolved on SDS-PAGE and subjected to Western analysis using primary antibodies specific to K40 acetylated α-tubulin. Trichostatin A (TSA), a potent HDAC inhibitor, was used as a positive control. To normalize the levels of acetylated α-tubulin we used total α-tubulin and GADPH proteins, detected by Western reactive antibodies specific to total α-tubulin and GADPH. […] FIGS. 2A-B show the bioactivity of 61 and 64 in N2a cells at three tested concentrations (10, 25, and 50 μM). Toxicity of the compounds was monitored in both cell lines, and most of them were non-toxic up to 50 μM in a 6 h treatment.

The subject of the next series is WT st14a cells. The experiment in a line: Toxicity monitoring in WT st14a cells. Conditions: up to 18 h treatment. In kind it is cell-based.
A short description of series [1]: Microsomal stability screen, human. As to conditions: 1 μM.
The nature of series [2]: Microsomal stability screen, mouse. As to conditions: 1 μM.
A further series concerns the target T1, SIRT2 (Homo sapiens, UniProt Q8IXJ6).
T1 construct: recombinant active enzymes SIRT1, SIRT2, and the catalytically active fragment of SIRT3
T1 sequence (Q8IXJ6 1-389): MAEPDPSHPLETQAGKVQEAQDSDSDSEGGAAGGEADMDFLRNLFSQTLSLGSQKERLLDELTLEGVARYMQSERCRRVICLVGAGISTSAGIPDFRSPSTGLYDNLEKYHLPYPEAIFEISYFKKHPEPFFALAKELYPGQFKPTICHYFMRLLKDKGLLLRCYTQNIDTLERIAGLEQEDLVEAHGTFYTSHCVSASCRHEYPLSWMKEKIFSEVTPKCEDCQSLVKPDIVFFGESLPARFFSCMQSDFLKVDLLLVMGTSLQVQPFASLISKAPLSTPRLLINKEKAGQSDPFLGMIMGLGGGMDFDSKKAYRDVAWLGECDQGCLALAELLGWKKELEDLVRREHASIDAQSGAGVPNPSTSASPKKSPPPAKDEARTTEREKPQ
Kind of series: Fluor-de-Lys biochemical sirtuin deacetylation assay, SIRT2. As to conditions: dose-response, five doses, side-by-side with AK-1.

A further series has as its target T2, SIRT1 (Homo sapiens, UniProt Q96EB6).
T2 sequence (Q96EB6 1-747): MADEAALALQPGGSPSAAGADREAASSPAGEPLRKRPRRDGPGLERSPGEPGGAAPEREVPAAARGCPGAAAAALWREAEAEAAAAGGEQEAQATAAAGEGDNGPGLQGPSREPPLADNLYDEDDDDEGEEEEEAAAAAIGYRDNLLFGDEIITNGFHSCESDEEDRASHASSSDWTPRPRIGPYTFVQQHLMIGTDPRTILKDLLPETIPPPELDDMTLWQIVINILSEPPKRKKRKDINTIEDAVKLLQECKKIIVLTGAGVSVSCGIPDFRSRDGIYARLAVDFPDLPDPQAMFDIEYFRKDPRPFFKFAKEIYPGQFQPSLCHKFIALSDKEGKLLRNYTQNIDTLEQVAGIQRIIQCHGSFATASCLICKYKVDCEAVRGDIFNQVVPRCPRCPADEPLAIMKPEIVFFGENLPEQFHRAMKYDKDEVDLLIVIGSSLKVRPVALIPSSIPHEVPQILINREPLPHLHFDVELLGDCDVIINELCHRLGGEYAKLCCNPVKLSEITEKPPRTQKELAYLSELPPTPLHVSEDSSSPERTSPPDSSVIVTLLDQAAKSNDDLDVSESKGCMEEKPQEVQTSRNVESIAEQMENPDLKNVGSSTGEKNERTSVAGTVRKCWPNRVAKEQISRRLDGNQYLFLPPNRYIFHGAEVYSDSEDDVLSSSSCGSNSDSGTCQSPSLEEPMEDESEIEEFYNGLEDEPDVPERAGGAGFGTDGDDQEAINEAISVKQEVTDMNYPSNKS
Kind of series: Fluor-de-Lys biochemical sirtuin deacetylation assay, SIRT1 counter-screen. Conditions: 10 μM counter-screen. Here is the method:
To evaluate the potency and selectivity of the synthesized compounds robust, sensitive, and quantitative, biochemical sirtuin deacetylation assays were employed. (SIRT2 then SIRT1 and SIRT3 for selectivity). Sirtuin activity was assessed using the Fluor-de-Lys assay with recombinant active enzymes SIRT1, SIRT2, and the catalytically active fragment of SIRT3, as described in the literature. […] AK-1 was included as the reference compound with each assay. […] Those compounds also were subjected to SIRT1 and SIRT3 assays to determine sirtuin selectivity.
As discussed above, Tables 1-10 are presented and followed by details relating to the synthesis and characterization of compounds prepared. Inhibition assays and related testing of such compounds are conducted according to well-known literature protocols including those found in Silverman, et al., Biorg. Med. Chem. Lett. 22 (2012) 2789-2793 and the references cited therein, such references and tests incorporated herein by reference.
(In general: A counterscreen serves to expose hits that act by an unwanted route or on another target.)

In series [3] the test system is α-tubulin K40 acetylation (SIRT2 substrate) in N2a cells. The experiment in a line: α-tubulin K40 acetylation (Western) in neuronal N2a cells. It is filed as cell-based. Conditions: N2a cells, 10, 25, 50 μM, 6 h. Here is the method:
FIGS. 2A-B. Cell-based assay for evaluating the bioactivity of SIRT2 inhibitors. A) Extracts from neuronal N2a cells treated with 61 and 64 for 6 h were resolved on SDS-PAGE and analyzed by Western analysis using antibodies specific to acetylated α-tubulin, and normalized to GADPH and total α-tubulin (not shown) levels.
as §1

Series [4] concerns α-tubulin K40 acetylation (SIRT2 substrate) in wild type and HD ST141 cell lines. Kind of series: α-tubulin K40 acetylation (Western) in wild type and HD ST141 cell lines. It is filed as cell-based. Here is the method:
as §1

For the next series, the system named is polyQ aggregation. As to conditions: cell-based model; read-out: suppression of aggregation, EC50; cited from earlier work.
Series [5] relates to huntingtin (htt) aggregation. Conditions: R6/2 mice; cited from earlier work.
Another series has as its system htt aggregation. Conditions: 140 CAG knock-in model of HD; cited from earlier work.
For series [6] the following is noted: in vivo; cited from earlier work.
For series [7] the following is noted: cited from earlier work.

For the compound `COc1ccc(N(C)S(=O)(=O)c2cccc(C(=O)Nc3ccc(C#N)cc3)c2)cc1` [Compound 90, N-(4-Cyanophenyl)-3-(N-(4-methoxyphenyl)-N-methylsulfamoyl)benzamide], the toxicity result in the series with N2a cells (25 μM) is “partially toxic”; in the series with N2a cells (50 μM) it was “toxic”; with WT st14a cells it was “no toxicity was observed”. Moreover, the “Mean remaining parent NADPH-free (%)” value is on record as 106% in series [1] and 90% in [2]. Further, the “Mean remaining parent with NADPH (%)” value in [1] and in series [2] was 2% throughout.
Consider `CN(c1ccc(S(C)(=O)=O)cc1)S(=O)(=O)c1cccc(C(=O)Nc2ccc(C#N)cc2)c1` [Compound 115, N-(4-Cyanophenyl)-3-(N-methyl-N-(4-(methylsulfonyl)phenyl)sulfamoyl)benzamide], for which the “SIRT2 inhibition potency compared with AK-1” value on SIRT2 is “significantly more potent”. For the same compound, on SIRT1, the “SIRT1 inhibition” value is listed as “minimal SIRT1 inhibition”. For the same compound, the “increase in α-tubulin K40 acetylation” value in [3] and in [4] was “did not show any significant increase” each time.
The term EC50 denotes the concentration that produces a half-maximal response. `O=C(Nc1ccc(Br)cc1)c1cccc(S(=O)(=O)Nc2ccc(Br)cc2)c1` [Compound C2-8]: the EC50 in the series on polyQ aggregation is 0.05 µM. In addition, the “inhibition of huntingtin (htt) aggregation in the striatum” value in [5] was 25-30%. The “reduction of htt aggregation” value in the series with htt aggregation is listed as 50%. Further, the “toxicity in acute and chronic tolerability studies” value in [6] is “not toxic”. Moreover, the aqueous solubility entry in [7] is on record as “low aqueous solubility”.
